# Source: article PMC10810434, “Thymoquinone-protoflavone hybrid molecules as potential antitumor agents” (PLOS ONE, 2024)
# Like-named read-outs stand apart in the source and are kept apart here.
# How the values were obtained:
# MCF-7 = assay: In vitro antiproliferative MTT assay on MCF-7; assay type: cell-based, human; settings: Homo sapiens, MCF7, up to 72 hours, mean of two independent measurements with three replicates each, read-out: Calculated IC50 ± SEM, MCF-7
# Source text: (§1) Gynecological cancer cell lines of human origin including breast cancer like the triple negative MDA-MB-231 and estrogen receptor positive MCF-7, […] cervical adenocarcinoma (HeLa), and human glioblastoma (U-87) cell lines were used as in vitro models to study the antiproliferative effects of the evaluated compounds. All cell lines were cultivated in T-75 flasks in a minimal essential medium (MEM) supplemented with 10% heat-inactivated fetal bovine serum (FBS), 1% antibiotic-antimycotic mixture (penicillin-streptomycin-amphotericin B) and 1% non-essential amino acids. Non-cancerous human lung fibroblast cell line (MRC-5) was maintained in low glucose Dulbecco’s Modified Eagle Medium (DMEM) supplemented with 20% heat-inactivated FBS, 1% antibiotic-antimycotic mixture and 4 mM L-glutamine. The cells were incubated at 37°C in 5% CO^2 incubator. The cells were seeded in 96-well plates at a density of 5 x 10^3 in 100 μL per well, except for the U-87 and MRC-5 that were seeded at 1 x 10^4 density and incubated at the same conditions for overnight to allow the cells’ attachment to the well’s bottom before the treatment.
# (§2) The compounds were dissolved in dimethyl sulfoxide (DMSO) as 10 mM standard stock solutions and kept at -20°C with minimum light exposure. Immediately before each experiment, the stock solution was used and diluted with a culture medium to get the final concentrations. The values of half-maximal inhibitory concentration (IC50) were determined by exposure of the cells into eight different concentrations of each tested compound (0.39, 0.78, 1.56, 3.125, 6.25, 12.5, 25 and 50 μM). Temozolomide (TMZ) and cisplatin were used as positive controls in the case of U-87 and the gynecological cell lines, respectively. The negative control wells included the cells with only MEM treatment. The plates were incubated for up to 72 hours under the same abovementioned incubation conditions. The colorimetric MTT assay was used to assess the compounds’ effect on cell proliferation. Briefly, 20 μL of MTT solution ([3-(4,5-dimethylthiazol-2-yl)-2,5-diphenyltetrazolium bromide], 5 mg/mL in PBS, Duchefa Biochemie BV, Haarlem, The Netherlands) was added to each well including the negative controls and kept under the usual incubation circumstances for additional four hours. Subsequently, the media was carefully aspirated and 100 μL of DMSO was added to each well and the plates were gently shaken for 30 min to solubilize the precipitated crystals of purple formazan. Absorbance was measured at a wavelength of 545 nm using a microplate UV-VIS reader (SPECTROstar Nano, BMG Labtech GmbH, Offenburg, Germany). The same procedure was performed using MRC-5 cells to determine the cancer selectivity of the most promising test compounds.
# (§3) Cell viability data were collected from two separate experiments in triplicates and evaluated using GraphPad Prism 9.5.1 (GraphPad Software Inc., San Diego, CA, USA). The half-maximal inhibitory concentration (IC50) values were determined using the log inhibitor vs normalized response nonlinear regression model. Difference between the IC50 values of a hybrid and its corresponding fragments’ experimental combination was statistically evaluated using unpaired T-test. Cancer selectivity of the most promising test compounds was characterized by calculating and comparing their selectivity index (SI). The value of the parameter derives from the ratio of IC50 value of test compound on MRC-5 cells and that on U-87 cells. The higher the value, the better the cancer selectivity of the test compound.
# MDA-MB-231 = assay: In vitro antiproliferative MTT assay on MDA-MB-231; assay type: cell-based, human; settings: Homo sapiens, MDA-MB-231, up to 72 hours, mean of two independent measurements with three replicates each, read-out: Calculated IC50 ± SEM, MDA-MB-231
# Source text: as §1, §2, §3
# U-87 glioblastoma cells = assay: In vitro antiproliferative MTT assay on U-87; assay type: cell-based, human; settings: Homo sapiens
# Source text: as §1, §2, §3
# HeLa = assay: In vitro antiproliferative MTT assay on HeLa; assay type: cell-based, human; settings: Homo sapiens, HeLa, up to 72 hours, mean of two independent measurements with three replicates each, read-out: Calculated IC50 ± SEM, HeLa
# Source text: as §1, §2, §3
# [1] = tested on: MRC-5 non-cancerous human lung fibroblast cell line; assay: In vitro antiproliferative MTT assay on MRC-5 (cancer selectivity); assay type: cell-based; settings: for IC50: MRC5, Table 3, non-cancerous human lung fibroblasts, read-out: Calculated IC50 ± SEM, MRC-5; for Selectivity index SI = IC50 (MRC-5)/IC50 (U-87): MRC-5 vs U-87
# Source text: as §1, §2, §3
# U-87 cells = assay: Combination assay: equimolar fragment mixtures vs hybrids on U-87; assay type: cell-based, human; settings: U-87 cells
# Experimental: as §2
# Combination study was performed by treating cells with equimolar mixtures of the abovementioned fragments or their hybrids, and corresponding cell viability data were comparatively evaluated. In this bioassay, at least two separate experiments were performed, each in triplicate. The dataset was then subjected to appropriate statistical analysis. The calculated IC50 values were subsequently employed to quantitatively assess the extent of pharmacological benefit obtained through the hybridization of fragments in comparison to the cytotoxic effect produced by the experimental combination of PA or its derivatives and TQ fragments.
# as §3
# [2] = MTT, up to 72 hours, mean of two independent measurements with three replicates each, read-out: Calculated IC50 ± SEM, U-87
# [3] = Table 3, U-87 glioblastoma, read-out: Calculated IC50 ± SEM, U-87 (Table 3)
SMILES,IC50 (MCF-7) [µM],IC50 (MDA-MB-231) [µM],IC50 (U-87 glioblastoma cells; [2]) [µM],IC50 (HeLa) [µM],IC50 (U-87 glioblastoma cells; [3]) [µM],IC50 [1] [µM],Selectivity index SI = IC50 (MRC-5)/IC50 (U-87) [1],"Hybrid vs corresponding 1:1 fragment mixture, antiproliferative activity in words (U-87 cells)"
"CC1=C(CCC(=O)O)C(=O)C(C(C)C)=CC1=O [Compound 3, 3-(5-isopropyl-2-methyl-3,6-dioxocyclohexa-1,4-dien-1-yl)propanoic acid]",> 100,38.2 ± 2.81,77.7 ± 1.61,> 100,–,–,–,–
"CC1=CC(=O)C(C(C)C)=CC1=O [Compound 2, 2-isopropyl-5-methylcyclohexa-2,5-diene-1,4-dione]",24 ± 1.37,7.02 ± 0.17,39.1 ± 3.53,> 100,–,–,–,–
"CCCCOC1(c2cc(=O)c3c(O)cc(OC(=O)CCC4=C(C)C(=O)C=C(C(C)C)C4=O)cc3o2)C=CC(=O)C=C1 [Compound 13, 2-(1-butoxy-4-oxocyclohexa-2,5-dien-1-yl)-5-hydroxy-4-oxo-4H-chromen-7-yl 3-(5-isopropyl-2-methyl-3,6-dioxocyclohexa-1,4-dien-1-yl)propanoate]",1.68 ± 0.16,0.99 ± 0.05,3.43 ± 0.25,1.4 ± 0.25,–,–,–,–
"CC1=CC(=O)C(C(C)C)=C(CCC(=O)O)C1=O [Compound 4, 3-(2-isopropyl-5-methyl-3,6-dioxocyclohexa-1,4-dien-1-yl)propanoic acid]",> 100,12.4 ± 0.37,88.7 ± 5.17,> 100,88.7 ± 5.17,40.2 ± 1.04,–,–
CCCCOC1(c2cc(=O)c3c(O)cc(O)cc3o2)C=CC(=O)C=C1 [Compound 9],2.01 ± 0.07,0.82 ± 0.05,1.5 ± 0.12,1.88 ± 0.1,1.5 ± 0.12,3.56 ± 0.12,2.37,–
"COC1(c2cc(=O)c3c(O)cc(OC(=O)CCC4=C(C)C(=O)C=C(C(C)C)C4=O)cc3o2)C=CC(=O)C=C1 [Compound 11, 5-hydroxy-2-(1-methoxy-4-oxocyclohexa-2,5-dien-1-yl)-4-oxo-4H-chromen-7-yl 3-(5-isopropyl-2-methyl-3,6-dioxocyclohexa-1,4-dien-1-yl)propanoate]",2.66 ± 0.11,2.25 ± 0.13,7.63 ± 0.46,3.51 ± 0.17,–,–,–,synergism

# Second part, led by results:
IC50 (MCF-7) [µM],IC50 (MDA-MB-231) [µM],IC50 (U-87 glioblastoma cells; [2]) [µM],IC50 (HeLa) [µM],IC50 (U-87 glioblastoma cells; [3]) [µM],SMILES,IC50 [1] [µM],Selectivity index SI = IC50 (MRC-5)/IC50 (U-87) [1],"Hybrid vs corresponding 1:1 fragment mixture, antiproliferative activity in words (U-87 cells)"
–,–,388 ± 43,–,388 ± 43,"Cn1nnc2c(C(N)=O)ncn2c1=O [TMZ, temozolomide, reference compound]",1090 ± 45.1,2.82,–
5.44 ± 1.32,3.53 ± 0.17,18.9 ± 3.42,6.78 ± 0.28,–,"COC1(c2cc(=O)c3c(O)cc(OC(=O)CCC4=C(C(C)C)C(=O)C=C(C)C4=O)cc3o2)C=CC(=O)C=C1 [Compound 15, 5-hydroxy-2-(1-methoxy-4-oxocyclohexa-2,5-dien-1-yl)-4-oxo-4H-chromen-7-yl 3-(2-isopropyl-5-methyl-3,6-dioxocyclohexa-1,4-dien-1-yl)propanoate]",–,–,no apparent difference
4.11 ± 0.34,1.98 ± 0.06,6.06 ± 0.4,1.71 ± 0.16,–,"CCOC1(c2cc(=O)c3c(O)cc(OC(=O)CCC4=C(C(C)C)C(=O)C=C(C)C4=O)cc3o2)C=CC(=O)C=C1 [Compound 16, 2-(1-ethoxy-4-oxocyclohexa-2,5-dien-1-yl)-5-hydroxy-4-oxo-4H-chromen-7-yl 3-(2-isopropyl-5-methyl-3,6-dioxocyclohexa-1,4-dien-1-yl)propanoate]",–,–,no apparent difference
